Experimental data published in US20230081064A1, “FORMULATIONS FOR DELIVERY TO THE EAR” (Spiral Therapeutics Inc., priority 2021, published 2023).
≈ marks a conversion by molar mass, not a printed value.

Test: Solubility of the active agent in water
Format: physicochemical

solubility: ~2.4 µM (≈ 1.51 µg/mL)
SMILES: COc1ccc2[nH]cc(CCNC(=O)CC3C(=O)N(CCc4ccc(Cl)cc4Cl)CC(=O)N3CCc3cccs3)c2c1 (stereo not shown) [LPT99, 2-(4-(2,4-Dichlorophenethyl)-3,6-dioxo-1-(2-(thiophen-2-yl)ethyl)piperazin-2-yl)-N-(2-(5-methoxy-1H-indol-3-yl)ethyl)acetamide]
